According to patent US12433876B2, “Septin inhibitors for treatment of cancers” (UNIVERSITY OF ROCHESTER, priority 2019, dated 2025):

Experiments:
Cullin-3 = assay: Cell Cycle Antibody Array, PANC-1 cells; type: cell-based; conditions: normalized to GAPDH
Excerpt: Cell Cycle Protein Expression. Cell Cycle Antibody Array (FullMoon BioSystems Inc, catalogue number: ACC:058), a high throughput ELISA based antibody array, designed for qualitative/semi-quantitative protein expression profiling was employed to investigate the protein changes after drug treatment. PANC-1 cells were lysed in buffer containing protease and phosphatase inhibitors (Cell Signaling, catalog number: 9803S). Total protein content was quantified by Bradford assay and equal amounts of proteins were analyzed in duplicate with arrays containing 4 to 6 spots for each of 60 probes (ACC058, Cell Cycle Antibody Array; Full Moon Biosystems, Sunnyvale, Calif.), according to manufacturer's instructions. After background correction, mean signal intensities were measured using FullMoon Inc's imaging services. Protein expressions in both the naïve and 328 treatment group was normalized to GAPDH signals. Confocal Analysis of Septin Disarrangement. To determine the impact of UR214-9 treatment on Septin-2 structure in cells, PANC-1 or JIMT-1 cells were seeded on glass slides and allowed to adhere overnight. The media was replaced with complete DMEM media supplemented with DMSO or UR214-9 (1 μM and 70 nM) and cells were incubated for 48 hours. […] The cells were stained with fluorescence linked secondary antibody for 1 hr under dark. […] Five cells were outlined and analyzed per field. […]

PANC-1 cell line = assay: RNA-Seq whole transcriptome analysis, PANC-1; type: cell-based, human; conditions: 10 nM Afatinib, 1 μM UR214-9

Question: Which results are given for `O=C(Nc1cc(Cl)nc(Cl)c1)Nc1cccc(SC(F)(F)F)c1F` [UR214-9]?
Answer: Cullin-3 expression, treated versus naïve (Cullin-3): most pronounced upregulation; significantly differentially expressed genes versus control (PANC-1 cell line): no differentially expressed genes
